Measurements taken from patent US7473790B2 (Pfizer Inc., priority 2003, dated 2009).

molecular target: T1, HCV polymerase (Hepatitis C virus genotype 1b, UniProt P26663); experiment: HCV polymerase primer/template-directed transcription assay (32P-GTP incorporation, filter binding); type: biochemical; conditions: @ 20 uM compound; given where IC50 was impractical to calculate; read-out: percent inhibition
T1 construct: 2.5 pmoles (0.15 μg) HCV polymerase protein in a final volume of 75 μL
Procedure, shortened: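 IC50s come from triplicate cpm, refit with an enzyme-concentration (30 nM) correction when under 200 nM. Reactions ran 30 min at 30° C in Tris pH 7.2 with MgCl2, 1 μM GTP spiked with α-32P-GTP, biotin-dG12 primer and poly(rC)300 template, with 1% DMSO. Incorporated label was collected on DE filtermats and counted.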

T1 sequence (P26663 2420-3010): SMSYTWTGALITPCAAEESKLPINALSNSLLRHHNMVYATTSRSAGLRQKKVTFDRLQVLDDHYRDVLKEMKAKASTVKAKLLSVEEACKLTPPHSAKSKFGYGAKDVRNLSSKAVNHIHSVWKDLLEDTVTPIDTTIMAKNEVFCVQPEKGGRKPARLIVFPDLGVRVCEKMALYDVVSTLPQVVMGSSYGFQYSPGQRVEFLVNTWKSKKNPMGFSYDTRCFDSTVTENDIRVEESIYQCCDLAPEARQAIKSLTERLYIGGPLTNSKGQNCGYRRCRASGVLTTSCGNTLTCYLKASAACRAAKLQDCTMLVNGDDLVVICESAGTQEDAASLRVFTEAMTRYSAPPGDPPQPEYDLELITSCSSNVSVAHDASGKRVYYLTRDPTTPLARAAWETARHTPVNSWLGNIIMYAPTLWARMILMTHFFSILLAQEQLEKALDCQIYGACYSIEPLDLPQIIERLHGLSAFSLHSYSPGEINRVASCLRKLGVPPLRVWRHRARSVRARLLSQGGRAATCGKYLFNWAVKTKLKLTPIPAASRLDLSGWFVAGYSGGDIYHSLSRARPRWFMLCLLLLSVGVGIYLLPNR

SMILES	inhibition at 20 µM
CCC1(CCc2ccc(OC)cc2)CC(O)=C(Sc2nc3cc(Cl)ccc3n2C(C)C)C(=O)O1 (stereo not drawn) [C(15), 3-(5-Chloro-1-isopropyl-1H-benzoimidazol-2-ylsulfanyl)-6-ethyl-4-hydroxy-6-[2-(4-methoxy-phenyl)-ethyl]-5,6-dihydro-pyran-2-one]	22%
CCC1(CCc2ccc(OC)cc2)CC(O)=C(Sc2nc3nc(C)cc(C)n3n2)C(=O)O1 (stereo not drawn) [C(16), 3-(5,7-Dimethyl-[1,2,4]triazolo[1,5-a]pyrimidin-2-ylsulfanyl)-6-ethyl-4-hydroxy-6-[2-(4-methoxy-phenyl)-ethyl]-5,6-dihydro-pyran-2-one]	8%

same assay, conditions: @ 50 uM compound; given where IC50 was impractical to calculate; read-out: percent inhibition

SMILES	inhibition at 50 µM
Cc1cc(C)n2nc(SC3=C(O)CC(C)(C4CCCC4)OC3=O)nc2n1 (stereo not drawn) [C(17), 6-Cyclopentyl-3-(5,7-dimethyl-[1,2,4]triazolo[1,5-a]pyrimidin-2-ylsulfanyl)-4-hydroxy-6-methyl-5,6-dihydro-pyran-2-one]	2%
CCC1(CC)CC(O)=C(Sc2nc3nc(C)cc(C)n3n2)C(=O)O1 [C(18), 3-(5,7-Dimethyl-[1,2,4]triazolo[1,5-a]pyrimidin-2-ylsulfanyl)-6,6-diethyl-4-hydroxy-5,6-dihydro-pyran-2-one]	2%
CCC1(CC)CC(O)=C(Sc2nc3cc(Cl)ccc3n2C(C)C)C(=O)O1 [C(19), 3-(5-Chloro-1-isopropyl-1H-benzoimidazol-2-ylsulfanyl)-6,6-diethyl-4-hydroxy-5,6-dihydro-pyran-2-one]	22%

same assay, conditions: recombinant HCV polymerase; 30 minutes at 30° C.; concentration giving 50% inhibition of polymerase-directed transcription; read-out: IC50

SMILES	IC50
Cc1cc(C)n2nc(CC3=C(O)CC(CCc4ccc([C@@H](C)O)cc4)(C4CCCC4)OC3=O)nc2n1 (stereo partly drawn) [B(112), 6-Cyclopentyl-3-(5,7-dimethyl-[1,2,4]triazolo[1,5-a]pyrimidin-2-ylmethyl)-4-hydroxy-6-{2-[4-(1-hydroxy-ethyl)-phenyl]-ethyl}-5,6-dihydro-pyran-2-one]	97 nM
CCc1cc(CCC2(C3CCCC3)CC(O)=C(Cc3nc4nc(C)cc(C)n4n3)C(=O)O2)ccc1Cl (stereo not drawn) [B(113), 6-[2-(4-Chloro-3-ethyl-phenyl)-ethyl]-6-cyclopentyl-3-(5,7-dimethyl-[1,2,4]triazolo[1,5-a]pyrimidin-2-ylmethyl)-4-hydroxy-5,6-dihydro-pyran-2-one]	19 nM
C[C@@H](O)c1ccc(CCC2(C3CCCC3)CC(=O)CC(=O)O2)cc1F (stereo partly drawn) [B(115), 6-Cyclopentyl-6-{2-[3-fluoro-4-(1-hydroxy-ethyl)-phenyl]-ethyl}-dihydro-pyran-2,4-dione]	3300 nM
COc1ccc(CCC2(C3CCCC3)CC(O)=C(Cc3nc4nc(C)cc(C)n4n3)C(=O)O2)c(OC)c1 (stereo not drawn) [B(117), 6-Cyclopentyl-6-[2-(2,4-dimethoxy-phenyl)-ethyl]-3-(5,7-dimethyl-[1,2,4]triazolo[1,5-a]pyrimidin-2-ylmethyl)-4-hydroxy-5,6-dihydro-pyran-2-one]	111 nM
COc1ccc(CCC2(C3CCCC3)CC(O)=C(Cc3nc4ncc(C)cn4n3)C(=O)O2)c(OC)c1 (stereo not drawn) [B(118), 6-Cyclopentyl-6-[2-(2,4-dimethoxy-phenyl)-ethyl]-4-hydroxy-3-(6-methyl-[1,2,4]triazolo[1,5-a]pyrimidin-2-ylmethyl)-5,6-dihydro-pyran-2-one]	200 nM
COc1ccc(CCC2(C3CCCC3)CC(O)=C(Cc3nc4ncc(Cl)cn4n3)C(=O)O2)c(OC)c1 (stereo not drawn) [B(119), 3-(6-Chloro-[1,2,4]triazolo[1,5-a]pyrimidin-2-ylmethyl)-6-cyclopentyl-6-[2-(2,4-dimethoxy-phenyl)-ethyl]-4-hydroxy-5,6-dihydro-pyran-2-one]	70 nM
COc1ccc(CCC2(C3CCCC3)CC(=O)CC(=O)O2)cc1[C@@H](C)O (stereo partly drawn) [B(121), 6-Cyclopentyl-6-{2-[3-(1-hydroxy-ethyl)-4-methoxy-phenyl]-ethyl}-dihydro-pyran-2,4-dione]	6000 nM
Cc1cc(C)n2nc(CC3=C(O)CC(CCc4ccc(C5(C)OCCO5)c(Cl)c4)(C4CCCC4)OC3=O)nc2n1 (stereo not drawn) [B(122), 6-{2-[3-Chloro-4-(2-methyl-[1,3]dioxolan-2-yl)-phenyl]-ethyl}-6-cyclopentyl-3-(5,7-dimethyl-[1,2,4]triazolo[1,5-a]pyrimidin-2-ylmethyl)-4-hydroxy-5,6-dihydro-pyran-2-one]	7 nM
CC1(c2ccc(CCC3(C4CCCC4)CC(=O)CC(=O)O3)cc2Cl)OCCO1 (stereo not drawn) [B(123), 6-{2-[3-Chloro-4-(2-methyl-[1,3]dioxolan-2-yl)-phenyl]-ethyl}-6-cyclopentyl-dihydro-pyran-2,4-dione]	580 nM
CC(=O)c1ccc(CCC2(C3CCCC3)CC(O)=C(Cc3nc4nc(C)cc(C)n4n3)C(=O)O2)cc1Cl (stereo not drawn) [B(124), 6-[2-(4-Acetyl-3-chloro-phenyl)-ethyl]-6-cyclopentyl-3-(5,7-dimethyl-[1,2,4]triazolo[1,5-a]pyrimidin-2-ylmethyl)-4-hydroxy-5,6-dihydro-pyran-2-one]	90 nM
Cc1cnc2nc(CC3=C(O)CC(CCc4ccc(C5(C#N)CC5)c(Cl)c4)(C4CCCC4)OC3=O)nn2c1 (stereo not drawn) [B(125), 1-(2-Chloro-4-{2-[2-cyclopentyl-4-hydroxy-5-(6-methyl-[1,2,4]triazolo[1,5-a]pyrimidin-2-ylmethyl)-6-oxo-3,6-dihydro-2H-pyran-2-yl]-ethyl}-phenyl)-cyclopropanecarbonitrile]	4 nM
N#CC1(c2ccc(CCC3(C4CCCC4)CC(O)=C(Cc4nc5ncc(Cl)cn5n4)C(=O)O3)cc2Cl)CC1 (stereo not drawn) [B(126), 1-(2-Chloro-4-{2-[5-(6-chloro-[1,2,4]triazolo[1,5-a]pyrimidin-2-ylmethyl)-2-cyclopentyl-4-hydroxy-6-oxo-3,6-dihydro-2H-pyran-2-yl]-ethyl}-phenyl)-cyclopropanecarbonitrile]	23 nM
CC(C)Oc1ccc(CCC2(C3CCCC3)CC(O)=C(Sc3cccc4cccnc34)C(=O)O2)cc1F (stereo not drawn) [C(01), 6-Cyclopentyl-6-[2-(3-fluoro-4-isopropoxy-phenyl)-ethyl]-4-hydroxy-3-(quinolin-8-ylsulfanyl)-5,6-dihydro-pyran-2-one]	337 nM
CC(C)Oc1ccc(CCC2(C3CCCC3)CC(O)=C(Sc3nc4cc(Cl)ccc4n3C(C)C)C(=O)O2)cc1F (stereo not drawn) [C(02)]	14 nM
COc1ccc(CCC2(C3CCCC3)CC(O)=C(Sc3cccc4cccnc34)C(=O)O2)cc1Cl (stereo not drawn) [C(03), 6-[2-(3-Chloro-4-methoxy-phenyl)-ethyl]-6-cyclopentyl-4-hydroxy-3-(quinolin-8-ylsulfanyl)-5,6-dihydro-pyran-2-one]	500 nM
O=C1OC(CCC2=CCCCC2)(C2CCCC2)CC(O)=C1Sc1nnc(-c2ccncc2)[nH]1 (stereo not drawn) [C(04), 6-(2-Cyclohex-1-enyl-ethyl)-6-cyclopentyl-4-hydroxy-3-(5-pyridin-4-yl-4H-[1,2,4]triazol-3-ylsulfanyl)-5,6-dihydro-pyran-2-one]	1800 nM
COc1ccc(CCC2(C3CCCC3)CC(O)=C(Sc3nnc(O)n3C(C)C)C(=O)O2)cc1Cl (stereo not drawn) [C(06), 6-[2-(3-Chloro-4-methoxy-phenyl)-ethyl]-6-cyclopentyl-4-hydroxy-3-(5-hydroxy-4-isopropyl-4H-[1,2,4]triazol-3-ylsulfanyl)-5,6-dihydro-pyran-2-one]	250 nM
Cc1cc(C)n2nc(SC3=C(O)CC(CCc4ccc(OC(C)C)c(F)c4)(C4CCCC4)OC3=O)nc2n1 (stereo not drawn) [C(07), 6-Cyclopentyl-3-(5,7-dimethyl-[1,2,4]triazolo[1,5-a]pyrimidin-2-ylsulfanyl)-6-[2-(3-fluoro-4-isopropoxy-phenyl)-ethyl]-4-hydroxy-5,6-dihydro-pyran-2-one]	19 nM
CC(C)Oc1ccc(CCC2(C3CCCC3)CC(O)=C(Sc3ccc(O)cc3)C(=O)O2)cc1F (stereo not drawn) [C(08), 6-Cyclopentyl-6-[2-(3-fluoro-4-isopropoxy-phenyl)-ethyl]-4-hydroxy-3-(4-hydroxy-phenylsulfanyl)-5,6-dihydro-pyran-2-one]	310 nM
Cc1nnc(SC2=C(O)CC(CCc3ccc(OC(C)C)c(F)c3)(C3CCCC3)OC2=O)s1 (stereo not drawn) [C(09), 6-Cyclopentyl-6-[2-(3-fluoro-4-isopropoxy-phenyl)-ethyl]-4-hydroxy-3-(5-methyl-[1,3,4]thiadiazol-2-ylsulfanyl)-5,6-dihydro-pyran-2-one]	326 nM
COC(=O)c1nnc(SC2=C(O)CC(CCc3ccc(OC(C)C)c(F)c3)(C3CCCC3)OC2=O)n1C (stereo not drawn) [C(10), 5-{6-Cyclopentyl-6-[2-(3-fluoro-4-isopropoxy-phenyl)-ethyl]-4-hydroxy-2-oxo-5,6-dihydro-2H-pyran-3-ylsulfanyl}-4-methyl-4H-[1,2,4]triazole-3-carboxylic acid methyl ester]	16 nM
CC(C)Oc1ccc(CCC2(C3CCCC3)CC(O)=C(Sc3ncccn3)C(=O)O2)cc1F (stereo not drawn) [C(11), 6-Cyclopentyl-6-[2-(3-fluoro-4-isopropoxy-phenyl)-ethyl]-4-hydroxy-3-(pyrimidin-2-ylsulfanyl)-5,6-dihydro-pyran-2-one]	190 nM
CC(C)Oc1ccc(CCC2(C3CCCC3)CC(O)=C(Sc3nnc(O)n3C(C)C)C(=O)O2)cc1F (stereo not drawn) [C(12), 6-Cyclopentyl-6-[2-(3-fluoro-4-isopropoxy-phenyl)-ethyl]-4-hydroxy-3-(5-hydroxy-4-isopropyl-4H-[1,2,4]triazol-3-ylsulfanyl)-5,6-dihydro-pyran-2-one]	82 nM
Cc1cc(C)n2nc(SC3=C(O)CC(CCc4ccc(-c5c(C)noc5C)cc4)(C4CCCC4)OC3=O)nc2n1 (stereo not drawn) [C(13), 6-Cyclopentyl-6-{2-[4-(3,5-dimethyl-isoxazol-4-yl)-phenyl]-ethyl}-3-(5,7-dimethyl-[1,2,4]triazolo[1,5-a]pyrimidin-2-ylsulfanyl)-4-hydroxy-5,6-dihydro-pyran-2-one]	16 nM
Cc1noc(C)c1-c1ccc(CCC2(C3CCCC3)CC(O)=C(Sc3nc4cc(Cl)ccc4n3C)C(=O)O2)cc1 (stereo not drawn) [C(14), 3-(5-Chloro-1-methyl-1H-benzoimidazol-2-ylsulfanyl)-6-cyclopentyl-6-{2-[4-(3,5-dimethyl-isoxazol-4-yl)-phenyl]-ethyl}-4-hydroxy-5,6-dihydro-pyran-2-one]	14 nM
